Data published in patent US20160310389A1, “Low Viscosity Hair Care Composition” (The Procter & Gamble Company, priority 2015, published 2016).

How the values were obtained:
Type in all cases: physicochemical
[1] = Kinematic viscosity of surfactant base formulation with added agent (calibrated Cannon viscometers); settings: for Kinematic viscosity at 40 C., 2% oil: 2% agent in base formulation; for Kinematic viscosity at 40 C., 4% oil: 4% agent in base formulation; for Kinematic viscosity at 40 C., 6% oil: 6% agent in base formulation; for Kinematic viscosity at 40 C., 8% oil: 8% agent in base formulation; for Lowest viscosity achieved: kinematic viscosity at 40° C., lowest over 2%, 4%, 6%, 8% agent in base formulation (24% sodium undecyl sulfate, 6% lauramidopropyl betaine, 1.6% perfume)
Text: Referring to Tables 1 and 2, the base formulations were made by mixing 1.6% perfume, 24% sodium undecyl sulfate (CAS#1072-24-8) active, 6% lauramidopropyl betaine (CAS#4292-10-8) active and 60.4% deionized water which leaves 8% unfilled for the addition of a viscosity reducing agent (the balance being filled in by distilled water). For all compositions, the surfactant, water and additives including viscosity reducing agents were expected to be in a single phase.
The agents from Tables 1 and 2 were added to the base formulation at a percentage of 2%, 4%, 6%, and 8% into the above surfactant solution. The subsequent formulations were vortexed and put into oven at 60° C. overnight to form homogeneous solution. The viscosities of the formulations were measured with calibrated viscometers (Size 200/350/450) from Cannon Instrument Company (2139 High Tech Road, State College, Pa., USA, 16803).
After the equilibration, the formulations were drawn to reach the starting mark with a rubber suction bulb and the flow time between the starting mark and end mark was recorded for calculation. Each formulation was measured three times to calculate average and standard deviation. Between samples, viscometer was cleaned with water and acetone to rinse off residual.
Viscosity values were calculated based on the equation:
Viscosity (mm^2/s (cSt))=Time (s)*Constant (mm^2/s^2·(cSt/s))
The time in the above equation is the flow time recorded in the experiment and the constant numbers for each calibrated viscometer were obtained from the manuals.

[2] = Shear viscosity of base formulation with additives (TA Instruments AR-G2 rheometer); settings: 5% single additive, 25 C, shear rate 1 s^-1
Text: Now referring to Table 3, the base formulations were made by mixing 1.5 or 3.0% of perfume R, 24% sodium undecyl sulfate (CAS#1072-24-8) active, 6% Lauramidopropyl Betaine (CAS#4292-10-8) active, and 60.4% deionized water which leaves 8% unfilled for oil addition and level studies (the balance being filled in by distilled water).
The complete formulations were made by adding the respective percentage of the agents from Table 3 into the base formulation, and filling the rest with deionized water to make 100% finished sample. The formulations were vortexed and put into oven at 60° C. overnight to form a homogeneous solution. For all formulations, the surfactant, water and additives including viscosity reducing agents are expected to be in a single phase.
The shear viscosity at 25 C for each formulations was measured at a shear rate of 1 s^−1 using a TA Instruments AR-G2 rheometer with a concentric cylinder attachment. Shear viscosities are reported in cP.

[3] = SAXS correlation length of the micelles; settings: for Change in correlation length compared to control: control 51 A
Text: Now referring to Table 4, SAXS (Small angle x-ray scattering) was used to characterize the structure of the surfactant aggregates. For these set of samples, the broad peak represents the correlation length (CL) of the micelles and was used to differentiate between the different formulations.
SAXS data was collected with a Bruker NanoSTAR (Bruker AXS Inc., Madison, Wis., U.S.A.) using the micro-focus, Cu x-ray tube, operating at 45 kV, 0.650 mA. The sample to detector distance was 112.050 cm and the detector was Vantec2K 2-dimensional area detector. Samples were placed in 2 mm quartz capillaries, sealed with expoxy resin to prevent evaporation. The sealant is permitted to cure for 2 hours at RT (room temperature) prior to loading into the SAXS sample chamber for data acquisition under vacuum with a data collection time of 1200 s. The data acquisition angular range is 0.3° to 3.0° […], to observe the presence and location of any intensity bands in the x-ray scattering pattern.
Each raw 2-D SAXS data is integrated azimuthally and plotted versus the scattering vector (q), which is expressed as a […] in units of angstroms (1/Å). • The values for q are calculated by the SAXS instrument according to the following equation: […]
Where: 2θ is the scattering angle; and λ is the wavelength used. For each formulation analyzed, the location of each intensity peak on the plot of (Intensity) I vs q is identified and recorded.

[4] = NMR self-diffusion coefficients and specific diffusivity ratio; settings: for Specific diffusivity ratio measured at 4%: diffusion coefficient of the viscosity reducing agent/diffusion coefficient of the surfactant, 4% additive; for Diffusion Coefficient (m^2/s) surfactant at 4% additive: surfactant self-diffusion
Protocol: Now referring to Table 5, the specified viscosity reducing agents were added to the formula at a level of 4% in absence of other viscosity reducing agents. Diffusion coefficients were determined using a vendor-supplied pulse sequence (“ledbpgq2s”, stimulated echo with bipolar gradients and convection compensation) using a Bruker Avance 700 MHz NMR spectrometer equipped with a Diff-30 high gradient diffusion probe. Gradient pulse durations ranged between 1700-2700 us, with diffusion periods ranging from 50-100 ms. 32 linearly-spaced gradient values were used ranging from 2%-95% of 40 A current, with resulting gradient strengths given by 30 Gauss/cm/A. Data were processed using software written in-house. It is often necessary to fit more than one diffusion coefficient to individual signals. Average diffusion coefficients are reported in these cases. Averages were calculated by averaging the reciprocals of the diffusion coefficients and then taking the reciprocal of that average.
The specific diffusivity ratio is calculated as the ratio of the diffusion coefficient of the viscosity reducing agent/diffusion coefficient of the surfactant.
Two mechanisms of viscosity reduction are hypothesized based on self-diffusion coefficients. This leads to a simple diagnostic measurement to classify perfumes by their mechanism of viscosity reduction. That diagnostic is the ratio of the perfume self-diffusion coefficient to the surfactant self-diffusion coefficient (specific diffusivity ratio). In mechanism 1, the surfactant diffusion coefficient is not reduced, and may be increased, while the perfume diffusion coefficient is faster still. In mechanism 2, the surfactant and perfume diffusion coefficient are reduced to relatively small, nearly equal values. For mechanism 1, the viscosity reducing agent diffuses faster than the surfactant (specific diffusivity ratio>1), whereas for mechanism 2, the viscosity reducing agent diffuses slower than the surfactant (specific diffusivity ratio<1).

| SMILES | Kinematic viscosity at 40 C., 2% oil [1] | Kinematic viscosity at 40 C., 4% oil [1] | Kinematic viscosity at 40 C., 6% oil [1] | Kinematic viscosity at 40 C., 8% oil [1] | Lowest viscosity achieved [1] | Shear viscosity [cP] for mixture ([2]; 1.5% Royal Hue) | Shear viscosity [cP] for mixture ([2]; 3.0% Royal Hue) | Correlation length peak [A] ([3]; 2% oil) | Change in correlation length compared to control ([3]; 2% oil) | Correlation length peak [A] ([3]; 4% oil) | Change in correlation length compared to control ([3]; 4% oil) | Specific diffusivity ratio measured at 4% [4] | Diffusion Coefficient (m^2/s) surfactant at 4% additive [4] |
| --- | --- | --- | --- | --- | --- | --- | --- | --- | --- | --- | --- | --- | --- |
| CC(=O)CCc1ccc(O)cc1 [Raspberry Ketone] | 151.9 cSt | 107.4 cSt | 54.0 cSt | 33.0 cSt | 33 cSt | 160 cP | 110 cP | 50 A | −2.0% | 49 A | −3.9% | 5.1364 | 9.5404E−12 m^2/s |
| CC(CC=O)CCCC(C)(C)O (centres unmarked) [Hydroxycitronellal] | 310.8 cSt | 145.4 cSt | 65.9 cSt | 34.1 cSt | 34 cSt | – | 161 cP | – | – | – | – | – | – |
| C=C(C)[C@H]1CC=C(C)CC1 [Limonene] | 366.5 cSt | 166.8 cSt | 97.5 cSt | 86.4 cSt | 86 cSt | 40 cP | 160 cP | 57 A | 11.8% | 62 A | 21.6% | 0.7428 | 2.4338E−12 m^2/s |
| CCOC(=O)C1OC1(C)c1ccccc1 (centres unmarked) [Ethyl Methyl Phenyl Glycidate] | – | – | – | – | – | – | 163 cP | – | – | – | – | – | – |

More lines, now with the values ahead:

| Kinematic viscosity at 40 C., 2% oil [1] | Kinematic viscosity at 40 C., 4% oil [1] | Kinematic viscosity at 40 C., 6% oil [1] | Kinematic viscosity at 40 C., 8% oil [1] | Lowest viscosity achieved [1] | Shear viscosity [cP] for mixture ([2]; 1.5% Royal Hue) | Shear viscosity [cP] for mixture ([2]; 3.0% Royal Hue) | Correlation length peak [A] ([3]; 2% oil) | Change in correlation length compared to control ([3]; 2% oil) | Correlation length peak [A] ([3]; 4% oil) | Change in correlation length compared to control ([3]; 4% oil) | Specific diffusivity ratio measured at 4% [4] | Diffusion Coefficient (m^2/s) surfactant at 4% additive [4] | SMILES |
| --- | --- | --- | --- | --- | --- | --- | --- | --- | --- | --- | --- | --- | --- |
| 527.3 cSt | 292.9 cSt | 203.1 cSt | – | 203 cSt | – | 376 cP | – | – | – | – | 1.5710 | 1.2262E−11 m^2/s | CC12CCC(CC1)C(C)(C)O2 [Eucalyptol] |
| 223.4 cSt | 73.0 cSt | 37.7 cSt | 39.9 cSt | 38 cSt | – | – | 56 A | 9.8% | 61 A | 19.6% | 0.7224 | 2.5217E−12 m^2/s | C=CC(C)(CCC=C(C)C)OC(=O)C(C)C (centres unmarked) [Linalyl Iso Butyrate] |
| – | – | – | – | – | – | 119 cP | – | – | – | – | – | – | CC(=O)c1ccccc1 [Acetophenone] |
| – | – | – | – | – | – | 207 cP | – | – | – | – | – | – | CC1=CCC2CC1C2(C)C (stereo not drawn) [alpha-Pinene] |
